This note sets out measurements from publication PMC3827942, “A novel type of N-acetylglutamate synthase is involved in the first step of arginine biosynthesis in Corynebacterium glutamicum” (BMC Genomics, 2013).

In test [1] the target is T1, Cg3035 (Corynebacterium glutamicum, UniProt Q8NM40).
T1 construct: gene Cgl2740; complete ORF, untagged as far as told, overexpressed from pZ8-1 in C. glutamicum ATCC 13032 and its cg3035 deletion mutant; crude extract
As to the kind of experiment: DTNB assay of CoA release at […] nm, crude extract. The format is biochemical. The following applies: 500 mM L-glutamate, 0.2 mM acetyl-CoA, 0.2 mM DTNB, 100 mM Tris-HCl pH 7.5, 25 C; overexpressing strain against deletion mutant; no acetyl-CoA consumption without glutamate.

Test [2] concerns the target T2, ArgA from E. coli (Escherichia coli, UniProt P0A6C5).
T2 construct: structural gene overexpressed from pZ8-1 in wild-type C. glutamicum ATCC 13032; crude extract
T2 sequence (P0A6C5 1-443): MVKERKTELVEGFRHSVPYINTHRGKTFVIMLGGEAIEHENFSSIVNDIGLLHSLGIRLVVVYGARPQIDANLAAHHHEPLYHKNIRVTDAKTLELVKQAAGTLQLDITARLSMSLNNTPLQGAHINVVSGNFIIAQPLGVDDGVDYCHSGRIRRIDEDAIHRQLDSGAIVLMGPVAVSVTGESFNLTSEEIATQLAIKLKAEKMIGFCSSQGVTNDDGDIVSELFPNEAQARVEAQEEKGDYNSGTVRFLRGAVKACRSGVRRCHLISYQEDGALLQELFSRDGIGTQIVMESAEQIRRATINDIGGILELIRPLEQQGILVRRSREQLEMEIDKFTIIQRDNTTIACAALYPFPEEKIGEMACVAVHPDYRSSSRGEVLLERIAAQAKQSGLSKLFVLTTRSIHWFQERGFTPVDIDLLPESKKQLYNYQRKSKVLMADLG
In words: DTNB assay of CoA release at […] nm, crude extract. The format is biochemical. The conditions noted are these: 500 mM L-glutamate, 0.2 mM acetyl-CoA, 0.2 mM DTNB, 100 mM Tris-HCl pH 7.5, 25 C; wild-type C. glutamicum background with own NAGS activity.

T1 sequence (Q8NM40 entry or part of it): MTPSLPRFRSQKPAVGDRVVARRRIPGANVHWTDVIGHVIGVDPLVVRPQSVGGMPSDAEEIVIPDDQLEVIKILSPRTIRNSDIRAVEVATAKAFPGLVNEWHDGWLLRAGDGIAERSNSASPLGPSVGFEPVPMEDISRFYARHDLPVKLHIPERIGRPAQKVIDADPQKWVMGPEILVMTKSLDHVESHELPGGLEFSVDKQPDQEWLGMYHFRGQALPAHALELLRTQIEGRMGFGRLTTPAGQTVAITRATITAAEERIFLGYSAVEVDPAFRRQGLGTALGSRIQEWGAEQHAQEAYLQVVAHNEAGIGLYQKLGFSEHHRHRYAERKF

For the compound `CC(=O)SCCNC(=O)CCNC(=O)[C@H](O)C(C)(C)COP(=O)(O)OP(=O)(O)OC[C@H]1O[C@@H](n2cnc3c(N)ncnc32)[C@H](O)[C@@H]1OP(=O)(O)O` [acetyl-CoA], the “DTNB assay of CoA release at 412 nm, crude extract” value in test [1] is recorded as “the function of Cg3035 to use acetyl-CoA for acetylation of glutamate was demonstrated”; in test [2] it was “ArgA from E. coli was found to confer additional NAGS activity”.
